# From patent publication US11999727B2 (Tango Therapeutics, Inc., priority 2020, dated 2024)
# Legend:
# [1] = tested on: HAP1 MTAP-intact cell line; test: SDMA in-cell western assay, HAP1 MTAP-intact; type: cell-based; conditions: Homo sapiens, HAP1, SDMA in-cell western, HAP1 MTAP-intact; read-out: MTAP HAP1 intact IC50
# Method in brief: (§1)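 Readout: in-cell western detection of SDMA. Cells: HAP1 expressing endogenous MTAP and an MTAP-null HAP1 counterpart. Output: IC50.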
# PRMT5 [2] = molecular target: T1, PRMT5 (Homo sapiens, UniProt O14744); test: PRMT5 biochemical IC50 assay with SAM as cofactor; conditions: PRMT5, SAM as cofactor; read-out: SAM IC50
# T1 construct: purchased Viva (custom protein)
# [3] = tested on: HAP1 MTAP-deleted cell line; test: SDMA in-cell western assay, HAP1 MTAP-deleted; type: cell-based; conditions: for IC50: Homo sapiens, HAP1, SDMA in-cell western, HAP1 MTAP-deleted; for MTAP intact/deleted ratio: SDMA in-cell western
# Method in brief: as §1
# PRMT5 [4] = molecular target: T1, PRMT5; test: PRMT5 biochemical IC50 assay with MTA as cofactor; conditions: PRMT5, MTA as cofactor; read-out: MTA IC50
# [5] = tested on: HAP1 MTAP-deleted cell line; test: Viability assay, MTAP-deleted cell line; type: cell-based; conditions: Homo sapiens, read-out: HAP1 MTAP deleted viability
# From the text: Table 1 additionally indicates IC50 values in a viability assay for the MTAP-deleted cell line (column 10), indicating the effect of treatment with compound on cell survival.
# PRMT5 [6] = molecular target: T1, PRMT5; test: PRMT5 biochemical IC50 assay with no cofactor; conditions: PRMT5, no cofactor
# From the text: Table 1 indicates IC50 values (μM) against PRMT5 for exemplary compounds in the presence of SAM as cofactor, with no cofactor, and with MTA as cofactor, respectively (columns 4-6). […] Ki values can be calculated from the IC50 values as described in the Examples section. As detailed in the Examples section, for the assay performed in the presence of SAM, IC50=Ki×1.5 (Ki=IC50/1.5).
# [7] = read-out: HAP1 MTAP deleted IC50
# [8] = IC50 ratio HAP1 MTAP-intact / HAP1 MTAP-deleted
# [9] = HAP1, viability assay, HAP1 MTAP-deleted
# [10] = read-out: HAP 1 MTAP deleted IC50
# [11] = HAP1, viability assay, MTAP-deleted cell line
# [12] = HAP1, viability IC50, MTAP-deleted cell line
# [13] = read-out: No Cofactor/ rel IC50
# [14] = HAP1, viability, HAP1 MTAP-deleted cell line
# T1 sequence (O14744 whole entry): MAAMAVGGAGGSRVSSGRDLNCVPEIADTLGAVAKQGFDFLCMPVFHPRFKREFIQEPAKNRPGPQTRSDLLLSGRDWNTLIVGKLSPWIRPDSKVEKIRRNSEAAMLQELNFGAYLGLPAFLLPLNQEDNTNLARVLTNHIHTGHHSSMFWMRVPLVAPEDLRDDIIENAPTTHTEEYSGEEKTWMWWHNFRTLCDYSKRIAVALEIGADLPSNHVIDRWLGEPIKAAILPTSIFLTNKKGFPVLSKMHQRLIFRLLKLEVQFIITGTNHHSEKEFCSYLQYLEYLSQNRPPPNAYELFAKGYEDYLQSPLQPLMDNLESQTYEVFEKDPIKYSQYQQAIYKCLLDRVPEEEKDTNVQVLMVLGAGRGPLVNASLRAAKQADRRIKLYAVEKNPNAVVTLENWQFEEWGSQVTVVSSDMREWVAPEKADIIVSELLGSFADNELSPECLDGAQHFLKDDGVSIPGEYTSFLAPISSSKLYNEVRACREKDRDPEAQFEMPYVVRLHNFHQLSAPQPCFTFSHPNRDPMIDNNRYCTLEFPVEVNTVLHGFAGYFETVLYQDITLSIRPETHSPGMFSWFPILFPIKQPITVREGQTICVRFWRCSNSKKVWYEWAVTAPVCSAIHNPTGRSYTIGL
# T1 sequence (Q9BQA1 whole entry partner): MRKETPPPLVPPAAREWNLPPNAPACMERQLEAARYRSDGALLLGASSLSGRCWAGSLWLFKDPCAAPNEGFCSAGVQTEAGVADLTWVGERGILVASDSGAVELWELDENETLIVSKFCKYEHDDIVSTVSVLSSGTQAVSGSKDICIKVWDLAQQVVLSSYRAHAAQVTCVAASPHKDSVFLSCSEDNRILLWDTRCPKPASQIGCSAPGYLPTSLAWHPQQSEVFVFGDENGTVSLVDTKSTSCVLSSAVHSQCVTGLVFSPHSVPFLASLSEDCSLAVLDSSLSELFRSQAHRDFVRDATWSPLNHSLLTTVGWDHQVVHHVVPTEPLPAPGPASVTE
IC50 [1] [nM],IC50 (PRMT5 [2]) [nM],"IC50 [3, 7] [nM]",IC50 (PRMT5 [4]) [nM],IC50 (PRMT5 [6]; read-out: No Cofactor/rel IC50) [nM],"IC50 [3, 10] [nM]",IC50 (PRMT5 [6]; [13]) [nM],Compound,"MTAP intact/deleted ratio [3, 8]","IC50 [5, 9] [nM]","IC50 [5, 11] [nM]","IC50 [5, 12] [nM]",MTAP intact/deleted ratio ([3]; IC50 ratio HAP1 MTAP-intact vs HAP1 MTAP-deleted),"IC50 [5, 14] [nM]"
< 100,< 50,< 100,< 50,< 50,,,"Cc1cc(NC(=O)C(=O)N2C[C@@H](C)CC[C@@H]2c2ccc3[nH]c(=O)ccc3c2)cnc1N (single isomer, unassigned) [Compound 762]",B (an IC50 ratio greater than or equal to 3 fold but lower than 10 fold),< 1000,,,,
> 1000,50 to 500,100 to 1000,< 50,50 to 500,,,"COc1ncc(NC(=O)C(=O)N2C[C@@H](C)CC[C@@H]2c2ccc3c(c2)C(=O)NC3)cc1C(N)=O (racemic) [Compound 759, 2-methoxy-5-[[2-[(2S,5R)-5-methyl-2-(3-oxoisoindolin-5-yl)-1-piperidyl]-2-oxo-acetyl]amino]pyridine-3-carboxamide]",A (an IC50 ratio greater than or equal to 10 fold),1000 to 10000,,,,
> 1000,50 to 500,,50 to 500,50 to 500,< 100,,Cc1cc(NC(=O)C(=O)N2C[C@H](C)CC[C@H]2c2ccc(F)c3[nH]ncc23)cnc1N (racemic) [Compound 1019],A (an IC50 ratio greater than or equal to 10 fold),,1000 to 10000,,,
100 to 1000,50 to 500,,< 50,< 50,< 100,,"Cc1nc2cc([C@@H]3CC[C@@H](C)CN3C(=O)C(=O)Nc3cncc(C(N)=O)c3)ccc2s1 (single isomer, unassigned) [Compound 693]",A (an IC50 ratio greater than or equal to 10 fold),,,< 1000,,
> 1000,50 to 500,< 100,50 to 500,50 to 500,,,"COc1cc([C@@H]2CC[C@@H](C)CN2C(=O)C(=O)Nc2cncc(C(N)=O)c2)ccn1 (racemic) [Compound 225, rac-5-{2-[(2R,5S)-2-(2-Methoxypyridin-4-yl)-5-methylpiperidin-1-yl]-2-oxoacetamido}pyridine-3-carboxamide]",A (an IC50 ratio greater than or equal to 10 fold),,1000 to 10000,,,
> 1000,50 to 500,,< 50,,100 to 1000,50 to 500,"NC(=O)c1cncc(NC(=O)C(=O)N2CCCCC2C2CCC2)c1 (stereo not shown) [Compound 103, 5-[[2-(2-cyclobutyl-1-piperidyl)-2-oxo-acetyl]amino]pyridine-3-carboxamide]",A (an IC50 ratio greater than or equal to 10 fold),,> 10000,,,
> 1000,> 500,,50 to 500,50 to 500,100 to 1000,,"Cc1cc(NC(=O)C(=O)N2C[C@H](C)CC[C@H]2c2cnc3scnc3c2)cnc1N (racemic) [Compound 685, N-(6-amino-5-methyl-3-pyridyl)-2-[(2S,5R)-5-methyl-2-thiazolo[5,4-b]pyridin-6-yl-1-piperidyl]-2-oxo-acetamide]",A (an IC50 ratio greater than or equal to 10 fold),,,> 10000,,
100 to 1000,< 50,< 100,< 50,< 50,,,"CCc1cc(NC(=O)C(=O)N2C[C@@H](C)CC[C@@H]2c2cccc([C@@H]3CCCN(C)C3)c2)cnc1N [Compound 1090, N-(6-amino-5-ethyl-3-pyridyl)-2-oxo-2-[(2R,5S)-5-methyl-2-[3-[(3S)-1-methyl-3-piperidyl]phenyl]-1-piperidyl]acetamide]",,,< 1000,,A (an IC50 ratio greater than or equal to 10 fold),
> 1000,> 500,> 1000,50 to 500,> 500,,,[H][C@@]1([C@]2([H])C[C@@]3(C[C@H](O)C3)C2)CC[C@@H](C)CN1C(=O)C(=O)Nc1cnc(N)c(C)c1 (mixture of isomers) [Compound 711],B (an IC50 ratio greater than or equal to 3 fold but lower than 10 fold),> 10000,,,,
100 to 1000,50 to 500,< 100,< 50,< 50,,,"Cc1cc(NC(=O)C(=O)N2C[C@H](C)CC[C@H]2c2ccc(F)c(F)c2)cnc1N (single isomer, unassigned) [Compound 458]",A (an IC50 ratio greater than or equal to 10 fold),,1000 to 10000,,,
> 1000,50 to 500,> 1000,50 to 500,50 to 500,,,"CCc1ncc(NC(=O)C(=O)N2C[C@@H](C)CC[C@@H]2c2ccccc2)cc1C(N)=O (racemic) [Compound 747, 2-Ethyl-5-[[2-[(2S,5R)-5-methyl-2-phenyl-1-piperidyl]-2-oxo-acetyl]amino]pyridine-3-carboxamide]",B (an IC50 ratio greater than or equal to 3 fold but lower than 10 fold),> 10000,,,,
> 1000,> 500,,> 500,> 500,> 1000,,"CC(=O)Oc1ccc([C@H]2CC[C@H](C)CN2C(=O)C(=O)Nc2cnc(N)c(C)c2)cc1 (single isomer, unassigned) [Compound 597]",B (an IC50 ratio greater than or equal to 3 fold but lower than 10 fold),,,> 10000,,
100 to 1000,< 50,,< 50,,< 100,< 50,"Cc1cc(NC(=O)C(=O)N2C[C@@H](C)CC[C@@H]2c2ccc3sc(C4CC(C)(C)N(C)C(C)(C)C4)nc3c2)cnc1C [Compound 1315, N-(5,6-dimethylpyridin-3-yl)-2-((2R,5S)-5-methyl-2-(2-(1,2,2,6,6-pentamethylpiperidin-4-yl)benzo[d]thiazol-5-yl)piperidin-1-yl)-2-oxoacetamide]",A (an IC50 ratio greater than or equal to 10 fold),,,,,< 1000
100 to 1000,50 to 500,,< 50,,< 100,< 50,"COc1ncc(NC(=O)C(=O)N2C[C@H](C)[C@H](OC)C[C@H]2c2ccc3scnc3c2)cc1C(N)=O (single isomer, unassigned) [Compound 1364]",A (an IC50 ratio greater than or equal to 10 fold),,,,,< 1000
> 1000,50 to 500,,< 50,,100 to 1000,50 to 500,"NC(=O)c1cncc(NC(=O)C(=O)N2CCCC[C@@H]2c2ccccc2)c1 (single isomer, unassigned) [Compound 85]",A (an IC50 ratio greater than or equal to 10 fold),,> 10000,,,
> 1000,50 to 500,100 to 1000,< 50,50 to 500,,,"C[C@@H]1CC[C@@H](c2ccc(Cn3cncn3)cc2)N(C(=O)C(=O)Nc2cncc(C(N)=O)c2)C1 (racemic) [Compound 252, rac-5-{2-[(2R,5S)-5-Methyl-2-{4-[(1H-1,2,4-triazol-1-yl)methyl]phenyl}piperidin-1-yl]-2-oxoacetamido}pyridine-3-carboxamide]",A (an IC50 ratio greater than or equal to 10 fold),,> 10000,,,
